Experiment [1] has as its target T1, cluster 2a type streptokinase (Streptococcus pyogenes, UniProt A0A288R465). Also noted: species or system group A streptococcal strain A614. As to conditions: cell-based; for fold lower IC50 compared to TXA and EACA: streptokinase cluster type 2a. Here is the method: The pellet from a mid-log phase culture of the strain A614 (cluster 2a type) or A314 (cluster 2b type) was washed twice with PBS and bacteria were adjusted to an OD600 of 1.0 in HEPES-buffer (10 mM HEPES, 150 mM NaCl, 0.01% Tween 20, pH 7.4). 90 µl of bacterial cells, plasminogen (final concentration 6.7 µg/ml per well) and fibrinogen (final concentration 1 µM per well) were pre-mixed. Then inhibitory compounds (LA, PA, oleic, myristic, stearic, palmitic, arachidonic, arachidic, linolenic acid, TXA or EACA) were added. Stocks of LA and PA were prepared in methanol and then diluted in PBS. Stocks of arachidic, oleic, arachidonic, myristic, palmitic, stearic and linolenic acid were prepared in 60% DMSO/PBS and then diluted in PBS. The untreated control received the same amount of PBS as in case of TXA and EACA as control or the same amount of methanol diluted in PBS as in case of LA and PA, respectively, or the same amount of DMSO diluted in PBS as in case of the other commercially available fatty acids. Then 50 µl of the respective supernatant (supernatant from the strain A614 if cells from A614 were used, supernatant from the strain A314 were used in case of cells from the GAS strain A314) and 3.75 µl 10 mM S-2251 (Chromogenix) were added. The assay was incubated at 37 °C and measured at the beginning of the reaction and then every hour at 405 nm after 3 sec of shaking on a Tecan Sunrise ELISAReader using Magellan software. Each experiment was repeated three times. IC50 values were calculated using Microsoft® Excel software.

Experiment [2] concerns the target T1, cluster 2a type streptokinase. Put plainly: biochemical. As to conditions: supernatant-based; for IC50 / fold lower concentration for the same range of inhibition as oleic and linolenic acid: cluster 2a; for fold lower IC50-values than TXA and EACA: cluster 2a type streptokinase. It is filed as biochemical, group A streptococcal strain A614.

Molecules are shown by their SMILES. Values joined by “and” are separate entries in the source; they are usually repeats but may differ in a detail not shown here. Identical values can stand only once. Like-named read-outs stand apart in the source and are kept apart here.

As a reminder, the IC50 is the point on the concentration scale where inhibition reaches its midpoint. Read a high IC50 as lower potency. As to `CCCCC/C=C\C/C=C\CCCCCCCC(=O)O` [LA, linoleic acid], in experiment [1], the “fold lower IC50 compared to TXA and EACA” value turned out to be 250 fold. In experiment [2], the IC50 is 156 µM and 149 µM; the “fold lower concentration for the same range of inhibition as oleic and linolenic acid” value is 3–4 fold; the “fold lower IC50-values than TXA and EACA” value was 500–1000 fold.
In the case of `CCCCCC/C=C\CCCCCCCC(=O)O` [PA, palmitoleic acid], the IC50 in experiment [1] (cluster 2a) was 359 µM and 471 µM. In addition, the “fold lower IC50 compared to TXA and EACA” value in experiment [1] is listed as 250 fold. In experiment [2], the IC50 is 91.6 µM and 105 µM; the “fold lower concentration for the same range of inhibition as oleic and linolenic acid” value is reported as 3–4 fold; the “fold lower IC50-values than TXA and EACA” value is listed as 500–1000 fold.

Values taken from publication PMC5603603, “Linoleic and palmitoleic acid block streptokinase-mediated plasminogen activation and reduce severity of invasive group A streptococcal infection” (Scientific Reports, 2017).
